Ends that are not written are not given here.
Experiments:
[1] = test system: LEF-1 dependent transcription (wnt signaling); assay: LEF-luciferase reporter of wnt signaling in 293T cells; format: cell-based; settings: at 37°
Protocol: LEF-1 (also designated tcf) is a DNA-binding protein that also binds with beta-catenin. The beta-catenin/LEF-1 complex is known to activate transcription of wnt target genes. A genetic construct was made which comprised this LEF-1-binding promoter operably linked with a luciferase gene, for use as a reporter of wnt signaling.
Single plasmids encoding individual GID fragments were transfected into 293T cells, together with the LEF-luciferase reporter, and luciferase activity was measured after 24 hours. GID fragments induced up to 100- to 250-fold activation of LEF-luciferase (normalized to activity from the mutated LEF-reporter control, which was activated less than 2-fold).

GSK-3 beta [2] = assay: In ovo tau phosphorylation assay: GSK-3 beta and Xaxin constructs co-expressed in Xenopus oocytes; format: cell-based; settings: construct co-expressed with GSK-3 beta in Xenopus oocytes; tau microinjected; PHF-1 immunoblot
Protocol: Stage VI Xenopus oocytes were isolated by collagenase treatment (Smith et al., 1994, Meth. Cell Biol. 36:45-58) and were injected with mRNA prepared by in vitro transcription (mMessage Machine™; Ambion, Austin, Tex.). 10 nanoliters of mRNA (containing 1-2 nanograms per nanoliter) was injected for each construct (unless otherwise specified), and the injected oocytes were incubated for 16 hours at 18° C. To analyze the effects of Xaxin constructs on dorsal-ventral pattern formation, Xenopus embryos were injected with 10 nanoliters of mRNA (0.1-0.2 nanogram per nanoliter) into one dorsal or ventral cell of a 4 cell embryo and dorsal axes were assessed at the tadpole stage. For Xaxin co-immunoprecipitation, fertilized eggs were injected with 10 nanoliters of Xaxin tagged with Myc, with hemagglutinin, or with both Myc and hemagglutinin (1 nanogram per nanoliter) and harvested at the blastula stage (stage 8).
In ovo phosphorylation of tau by GSK-3 beta was performed by microinjection of tau protein into oocytes expressing GSK-3 beta and Xaxin constructs. After 90 minutes, oocytes were homogenized and tau phosphorylation was analyzed in western blots using phospho-specific antibodies as described (Hedgepeth et al., 1997, Develop. Biol. 185:82-91). In vitro assays for GSK-3 beta activity were performed as described (Klein et al., 1996, Proc. Natl. Acad. Sci. USA 93:8455-8459). Recombinant GID-2/his protein (described below) was purified by affinity chromatography and added to in vitro assays at selected concentrations. […]
GSK-3 beta was expressed in oocytes together with Myc-tagged full length Xaxin or with the amino-terminal (amino acid residues 63-288), GID-1 (amino acid residues 277-545), or carboxyl-terminal (amino acid residues 429-713) fragments of Xaxin, as depicted in FIG. 1A. Purified tau protein was then microinjected into the oocytes, and phosphorylation of tau was measured by immunoblotting using antibody PHF-1 or with antibodies that detect all (i.e. phosphorylated and non-phosphorylated) forms of tau. […]

GSK-3 beta [3] = assay: Co-immunoprecipitation of GSK-3 beta with Myc-tagged Xaxin constructs in Xenopus oocytes; format: binding; settings: Myc-tagged construct co-expressed with GSK-3 beta in Xenopus oocytes; anti-Myc IP, anti-GSK-3 beta blot

Row | Substance | reduction of activity in LEF-luciferase assay compared to wild-type [1] | GSK-3 beta-mediated tau phosphorylation (GSK-3 beta activity) (GSK-3 beta [2]) | binding with GSK-3 beta (co-immunoprecipitation) (GSK-3 beta [3])
1 | GID5-6FY: GID mutant in which phenylalanine-388 is replaced with a tyrosine residue (DIHVDPEKYAAELISRLEGVLRDRE) | approximately 10 fold | – | –
2 | GID-3: Myc-tagged fragment, Xaxin amino acid residues 320-375 (DSEQQSMSSDADTMSLTDSSVDGIPPYRLRKHYRREMQESANANGRGPLPHIPRTY; also: Myc-tagged fragment) | – | no effect | did not bind
3 | GID-5: Myc-tagged fragment, Xaxin amino acid residues 380-429 (DIHVDPEKFAAELISRLEGVLRDREAEQKLEERLKRVRAEEEGDDGDVSS; also: Myc-tagged fragment) | – | inhibited | bound
4 | GID-6: Myc-tagged fragment, Xaxin amino acid residues 380-404 (SEQ ID NO: 1) (DIHVDPEKFAAELISRLEGVLRDRE; also: Myc tag) | – | inhibited | bound

Source: patent publication US20010052137A1, “Axin domain-like polypeptide inhibitors of glycogen synthase kinase 3 beta activity and activators of wnt signaling” (Trustees of the University of Pennsylvania, priority 2000, published 2001)
